Source: patent US20230355631A1, “PROCESS FOR IMPROVING FLUIDITY OF PALBOCICLIB ISETHIONATE AND COMPOSITION” (NANJING GRITPHARMA CO., LTD., priority 2020, published 2023)

Experiment: Properties of the granules / powder mix (angle of repose, bulk density, tap density, compression index)
Type: physicochemical
Conditions: bulk drug powder
Experimental: With reference to Example 7, 5 batches of samples 7-1, 7-2, 7-3, 7-4, and 7-5 were prepared by a capsule filling process after granules were prepared by dry granulation at different press roll pressures (a GL5-50 dry granulation machine with a 2.0 mm primary granulation sieve and a 1.0 mm secondary granulation sieve was used), and properties of the granules (including angle of repose, bulk density, and tap density), content uniformity of finished products, and other indexes were investigated separately. […] According to requirements of pharmacopoeia, the release rate of the samples is equal to or greater than 80% (Q) of the labelled amount in a medium with a pH of 1.2 within 30 minutes. Thus, the release rate of the various batches of samples (7-1, 7-2, 7-3, 7-4, and 7-5) was investigated in a medium with a pH of 1.2.
The palbociclib isethionate has poor fluidity and is a loose powder. […] Especially when capsules are filled in commercial batches in a large scale, the problem of difficulty in automatic filling at high speed will be caused due to poor fluidity of the powder. Moreover, the filled capsules have great differences in loading capacity, so that the content uniformity and the product quality are unqualified. […]

SMILES: CC(=O)c1c(C)c2cnc(Nc3ccc(N4CCNCC4)cn3)nc2n(C2CCCC2)c1=O.O=S(=O)(O)CCO [palbociclib isethionate]
- Fluidity of the raw material: poor fluidity
